Data set [1] relates to early stage HCT-116 colon carcinoma. How it is done:
(§1) This efficacy may be quantified, for example by the log10 cells killed, which is determined by the following formula:
(§2) log10 cell killed=T-C(days)/3.32×Td
(§3) A product is considered to be active if the log10 cell kill is greater than or equal to 0.7. A product is considered to be very active is the log10 cell kill is greater than 2.8.
Three dosage levels of capecitabine were given alone on days 18-22 and 25-29. In the combination arm, two semi-simultaneous schedules were investigated.

The subject of data set [2] is metastatic colorectal cancer. Conditions: oral capecitabine, first-line, phase III; cited from earlier work.
For data set [3], the system named is human colon carcinoma strain HCT-116. Conditions: for Comments / Log10 cell Kill / T-C (Tumor Growth Delay): days 5-9, 12-16; for activity at the maximum tolerated dose: maximum tolerated doses, p.o., HCT-116 in Swiss-nude mice. The procedure:
as §1, §2, §3

[4] abbreviates: capecitabine 443 mg/kg/adm p.o., days 18-22 & 25-29.
The mark [5] stands for this setting: capecitabine 713 mg/kg/adm p.o., days 18-22 & 25-29.
Where [6] appears, read: capecitabine 1150 mg/kg/adm p.o., days 18-22 & 25-29.
[7] abbreviates: capecitabine 443 mg/kg/adm p.o.
[8] abbreviates: capecitabine 713 mg/kg/adm p.o.
[9] abbreviates: CPT-11 60 mg/kg/adm p.o., days 18-22.
Setting [10] is: CPT-11 96 mg/kg/adm p.o., days 18-22.

Like-named read-outs stand apart in the source and are kept apart here.

Consider `CCCCCOC(=O)Nc1nc(=O)n([C@@H]2O[C@H](C)[C@@H](O)[C@H]2O)cc1F` [capecitabine, 5′-deoxy-5-fluoro-N-[(pentyloxy)-carbonyl]-cytidine], for which the Comments result in data set [1] (setting [4]), in data set [1] (setting [5]), in data set [3] (setting [7]) and in data set [3] (setting [8]) was “Active” each time. In addition, the “Log10 cell Kill” value in data set [1] (setting [4]) is reported as 2.1; in data set [1] (setting [5]), 2.1; in data set [1] (setting [6]), 3.2; in data set [3] (setting [7]) it was 1.1; in data set [3] (setting [8]), 2.6. Moreover, the “T-C (Tumor Growth Delay)” value in data set [1] (setting [4]) was determined as 26.1 days; in data set [1] (setting [5]) it was 25.2 days; in data set [1] (setting [6]), 39.4 days; in data set [3] (setting [7]), 16.3 days; in data set [3] (setting [8]), 38.7 days. Besides, the “efficacy compared with i.v. 5-FU/leucovorin (Mayo Clinic regimen)” value in data set [2] was “superior response rate and at least equivalent survival and time to disease progression”. In addition, the “safety profile compared with the Mayo Clinic regimen” value in data set [2] is “more favourable safety profile”. For the same compound, in data set [3], the “activity at the maximum tolerated dose” value was “highly active”.

With irinotecan [CPT-11], the Comments entry was “Active” in data set [1] (setting [9]); “HNTD” in data set [1] (setting [10]); “Toxic” in data set [1] (CPT-11 155 mg/kg/adm p.o., days 18-22); “Active” in data set [3] (CPT-11 29 mg/kg/adm p.o.); “HNTD” in data set [3] (CPT-11 48 mg/kg/adm p.o.); “Toxic” in data set [3] (CPT-11 80 mg/kg/adm p.o.). The “Log10 cell Kill” value in data set [1] (setting [9]) is recorded as 1.7; in data set [1] (setting [10]), 1.7; in data set [3] (CPT-11 29 mg/kg/adm p.o.) it was 2.1. Further, the “T-C (Tumor Growth Delay)” value came out at 21.4 days in data set [1] (setting [9]), 21.3 days in data set [1] (setting [10]) and 30.1 days in data set [3] (CPT-11 29 mg/kg/adm p.o.). For the same compound, in data set [3], the “activity at the maximum tolerated dose” value is recorded as “highly active”.

(Values after patent publication US6664242B2 (priority 2000, dated 2003).)
